From PMC3697191 (Journal of Pharmacy & Bioallied Sciences, 2013)
≈ marks a conversion by molar mass, not a printed value.

Experiments:
[1] = tested on: mouse embryonic fibroblasts cell line (NIH 3T3); details: SI = IC50 (NIH 3T3) / MIC (M. tuberculosis H37Rv)
[2] = tested on: Mycobacterium tuberculosis H37Rv; test: Microplate Alamar Blue assay; format: cell-based; details: for MIC: Mycobacterium tuberculosis, H37RV, 120 h, read-out: M. tuberculosis MIC, H37Rv, microplate Alamar Blue assay; for times more active than Pyrazinamide (MIC) / times more active than streptomycin (MIC): M. tuberculosis H37Rv
[3] = in vitro; details: mouse
[4] = tested on: B. substilis; test: MIC by two-fold serial dilution; format: cell-based, Bacillus subtilis

SMILES | Selectivity index [1] | MIC [2] [µM] | IC50 [3] [µM] | times more active than Ciprofloxacin (MIC) [4] | times more active than Pyrazinamide (MIC) [2] | times more active than streptomycin (MIC) [2]
O=C1C(=NNc2nc(-c3ccccc3)cs2)C(N=Cc2ccccc2O)=NN1c1ccccc1 [TZP4f, 3-[[(2-hydroxyphenyl)methylidene]amino]-1-phenyl-4-[2-(4-phenyl-1,3-thiazol-2-yl) hydrazin-1-ylidene]-4,5-dihydro-1H-pyrazol-5-one] | 24.44 | 53.6 (≈ 25 µg/mL) |  |  |  | 
O=C1C(=NNc2nc(-c3ccccc3)cs2)C(N=Cc2ccc([N+](=O)[O-])cc2)=NN1c1ccccc1 [TZP4l, 3-[[(4-nitrophenyl)methylidene]amino]-1-phenyl-4-[2-(4-phenyl-1,3-thiazol-2-yl) hydrazin-1-ylidene]-4,5-dihydro-1H-pyrazol-5-one] | 20.32 |  | > 1000 |  |  | 
O=C1C(=NNc2nc(-c3ccccc3)cs2)C(N=Cc2cccc(Cl)c2)=NN1c1ccccc1 [TZP4c, 3-[[(3-chlorophenyl)methylidene]amino]-1-phenyl-4-[2-(4-phenyl-1,3-thiazol-2-yl) hydrazin-1-ylidene]-4,5-dihydro-1H-pyrazol-5-one] | 82.85 |  | > 1000 |  |  | 
COc1cc(C=NC2=NN(c3ccccc3)C(=O)C2=NNc2nc(-c3ccccc3)cs2)ccc1O [TZP4j, 3-[[(4-hydroxy-3-methoxyphenyl)methylidene]amino]-1-phenyl-4-[2-(4-phenyl-1,3-thiazol-2-yl) hydrazin-1-ylidene]-4,5-dihydro-1H-pyrazol-5-one] |  | 25.2 (≈ 12.5 µg/mL) |  | 2.99 |  | 
O=C1C(=NNc2nc(-c3ccccc3)cs2)C(N=Cc2ccc(O)c(O)c2)=NN1c1ccccc1 [TZP4h, 3-[[(3,4-dihydroxyphenyl)methylidene]amino]-1-phenyl-4-[2-(4-phenyl-1,3-thiazol-2-yl) hydrazin-1-ylidene]-4,5-dihydro-1H-pyrazol-5-one] | 199.07 | 6.48 (≈ 3.13 µg/mL) |  | 1.45 | 3.9 | 1.69
[H]/N=C(/N)N[C@H]1[C@H](O)[C@@H](O)[C@H](O[C@@H]2O[C@@H](C)[C@](O)(C=O)[C@H]2O[C@@H]2O[C@@H](CO)[C@H](O)[C@@H](O)[C@@H]2NC)[C@@H](N/C(N)=N\[H])[C@@H]1O [Streptomycin, reference compound] |  | 11 (≈ 6.4 µg/mL) |  |  |  | 
COc1cccc(C=NC2=NN(c3ccccc3)C(=O)C2=NNc2nc(-c3ccccc3)cs2)c1 [TZP4i, 3-[[(3-methoxyphenyl)methylidene]amino]-1-phenyl-4-[2-(4-phenyl-1,3-thiazol-2-yl) hydrazin-1-ylidene]-4,5-dihydro-1H-pyrazol-5-one] |  | 26 (≈ 12.5 µg/mL) |  |  |  | 
CN(C)c1ccc(C=NC2=NN(c3ccccc3)C(=O)C2=NNc2nc(-c3ccccc3)cs2)cc1 [TZP4k, 3-[{[4-(dimethylamino)phenyl]methylidene}amino]-1-phenyl-4-[2-(4-phenyl-1,3-thiazol-2-yl) hydrazin-1-ylidene]-4,5-dihydro-1H-pyrazol-5-one] |  | 13 (≈ 6.4 µg/mL) |  |  |  | 
NC(=O)c1cnccn1 [Pyrazinamide, reference compound] |  | 25.4 (≈ 3.12 µg/mL) |  |  |  | 
O=C1C(=NNc2nc(-c3ccccc3)cs2)C(N=Cc2ccc(O)cc2O)=NN1c1ccccc1 [TZP4g, 3-[[(2,4-dihydroxyphenyl)methylidene]amino]-1-phenyl-4-[2-(4-phenyl-1,3-thiazol-2-yl) hydrazin-1-ylidene]-4,5-dihydro-1H-pyrazol-5-one] | 168.88 | 12.9 (≈ 6.25 µg/mL) | > 1000 | 1.45 | 1.69 | 3.91
O=C1C(=NNc2nc(-c3ccccc3)cs2)C(N=Cc2ccccc2Cl)=NN1c1ccccc1 [TZP4b, 3-[[(2-chlorophenyl)methylidene]amino]-1-phenyl-4-[2-(4-phenyl-1,3-thiazol-2-yl) hydrazin-1-ylidene]-4,5-dihydro-1H-pyrazol-5-one] |  |  | 990 |  |  | 
O=C1C(=NNc2nc(-c3ccccc3)cs2)C(N=Cc2ccc(Cl)cc2)=NN1c1ccccc1 [TZP4d, 3-[[(4-chlorophenyl)methylidene]amino]-1-phenyl-4-[2-(4-phenyl-1,3-thiazol-2-yl) hydrazin-1-ylidene]-4,5-dihydro-1H-pyrazol-5-one] | 22.37 |  | > 1000 |  |  | 
